Our source for the % of control, % of inhibition and % activity values is ChEMBL document CHEMBL5465560, “Selectivity Literature for EUbOPEN Chemogenomic Library” (2024).

The target in assay [1] is Serine/threonine-protein kinase Nek6 (Homo sapiens) (UniProt Q9HC98). In words: Selectivity interaction (KinomeScan (DiscoverX)) EUB0001619a NEK6. Particulars: at 1 µM.
The target of assay [2] is T1, Cyclin-dependent kinase 11A (Homo sapiens) (UniProt Q9UQ88).
T1 sequence (whole entry): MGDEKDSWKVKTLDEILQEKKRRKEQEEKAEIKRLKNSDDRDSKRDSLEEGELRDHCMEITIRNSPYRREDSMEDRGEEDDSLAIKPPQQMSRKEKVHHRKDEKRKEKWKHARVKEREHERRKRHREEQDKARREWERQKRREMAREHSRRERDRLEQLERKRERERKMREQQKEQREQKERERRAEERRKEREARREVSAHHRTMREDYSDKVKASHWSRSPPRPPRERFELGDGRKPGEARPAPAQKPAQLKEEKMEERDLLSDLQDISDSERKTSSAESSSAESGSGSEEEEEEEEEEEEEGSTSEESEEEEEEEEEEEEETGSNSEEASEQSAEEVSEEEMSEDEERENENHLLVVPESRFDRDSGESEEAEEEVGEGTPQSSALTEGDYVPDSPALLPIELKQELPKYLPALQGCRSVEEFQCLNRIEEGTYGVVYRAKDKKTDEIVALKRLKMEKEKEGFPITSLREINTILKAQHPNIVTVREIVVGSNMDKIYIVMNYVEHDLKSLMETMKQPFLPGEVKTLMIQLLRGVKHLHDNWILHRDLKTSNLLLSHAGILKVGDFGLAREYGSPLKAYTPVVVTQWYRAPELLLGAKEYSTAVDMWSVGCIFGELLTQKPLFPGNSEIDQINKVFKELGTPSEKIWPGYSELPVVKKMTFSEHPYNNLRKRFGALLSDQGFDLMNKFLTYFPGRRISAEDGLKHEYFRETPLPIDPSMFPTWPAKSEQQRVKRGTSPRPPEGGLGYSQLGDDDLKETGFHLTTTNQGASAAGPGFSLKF
Particulars: at 10 µM.

The target in assay [3] is Calcium/calmodulin-dependent protein kinase kinase 2 (Homo sapiens) (UniProt Q96RR4). The experiment in a line: Selectivity interaction (ActivX KiNativ screen (kinase selectivity in THP-1 cell lysates)) EUB0000639a CAMKK2. In kind it is subcellular. The note with it: lysate, at 5 µM.
In assay [4] the target is T2, Histone-arginine methyltransferase CARM1 (Homo sapiens) (UniProt Q86X55).
T2 sequence (whole entry): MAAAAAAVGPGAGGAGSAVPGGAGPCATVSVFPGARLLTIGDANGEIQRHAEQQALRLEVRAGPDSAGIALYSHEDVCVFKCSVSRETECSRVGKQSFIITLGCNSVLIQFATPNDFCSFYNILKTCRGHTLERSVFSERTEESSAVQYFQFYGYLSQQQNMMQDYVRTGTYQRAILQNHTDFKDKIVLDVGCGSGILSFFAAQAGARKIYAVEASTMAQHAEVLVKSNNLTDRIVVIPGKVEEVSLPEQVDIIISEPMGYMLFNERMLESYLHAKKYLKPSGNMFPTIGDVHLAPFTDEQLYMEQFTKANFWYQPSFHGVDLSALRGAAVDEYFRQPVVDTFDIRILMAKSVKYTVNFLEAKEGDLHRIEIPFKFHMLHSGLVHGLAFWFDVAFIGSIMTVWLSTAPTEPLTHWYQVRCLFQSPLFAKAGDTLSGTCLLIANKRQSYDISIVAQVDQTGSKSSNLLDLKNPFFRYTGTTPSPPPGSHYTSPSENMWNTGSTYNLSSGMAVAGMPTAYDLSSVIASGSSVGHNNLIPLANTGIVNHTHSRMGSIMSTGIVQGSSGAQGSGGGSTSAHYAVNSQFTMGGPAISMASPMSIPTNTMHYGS
The note with it: at 10 µM.

Assay [5] has as its target T3, Mitogen-activated protein kinase 13 (Homo sapiens) (UniProt O15264).
T3 sequence (whole entry): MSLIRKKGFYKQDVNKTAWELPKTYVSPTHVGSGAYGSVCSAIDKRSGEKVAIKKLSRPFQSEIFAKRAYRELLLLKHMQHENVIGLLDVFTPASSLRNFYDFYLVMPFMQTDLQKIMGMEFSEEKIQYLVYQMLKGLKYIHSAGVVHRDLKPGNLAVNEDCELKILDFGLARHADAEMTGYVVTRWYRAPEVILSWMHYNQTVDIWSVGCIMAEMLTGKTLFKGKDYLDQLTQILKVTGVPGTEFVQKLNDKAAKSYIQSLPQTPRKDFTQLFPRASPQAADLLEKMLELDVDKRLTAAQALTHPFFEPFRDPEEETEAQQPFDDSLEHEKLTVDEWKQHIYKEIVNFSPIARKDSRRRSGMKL
In words: Selectivity interaction (KinomeScan (DiscoverX)) EUB0000045b MAPK13.

In assay [6] the target is Vascular endothelial growth factor receptor 2 (Homo sapiens, UniProt P35968). In words: Selectivity interaction (KinomeScan (DiscoverX)) EUB0000618a KDR. The note with it: at 10 µM.
The target in assay [7] is T4, Testis-specific serine/threonine-protein kinase 1 (Homo sapiens) (UniProt Q9BXA7).
T4 sequence (whole entry): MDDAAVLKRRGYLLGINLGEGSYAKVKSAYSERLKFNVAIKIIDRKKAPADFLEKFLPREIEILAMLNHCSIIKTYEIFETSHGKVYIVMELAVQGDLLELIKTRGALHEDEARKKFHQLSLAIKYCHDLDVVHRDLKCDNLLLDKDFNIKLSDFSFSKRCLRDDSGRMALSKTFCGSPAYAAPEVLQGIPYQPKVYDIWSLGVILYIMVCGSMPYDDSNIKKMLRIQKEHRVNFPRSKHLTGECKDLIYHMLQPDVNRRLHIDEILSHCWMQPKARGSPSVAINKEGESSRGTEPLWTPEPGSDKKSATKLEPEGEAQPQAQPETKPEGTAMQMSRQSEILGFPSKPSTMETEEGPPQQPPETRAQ
In words: Selectivity interaction (KinomeScan (DiscoverX)) EUB0000092b TSSK1A. Particulars: at 10 µM.

The target in assay [8] is Ribosomal protein S6 kinase alpha-6 (Homo sapiens, UniProt Q9UK32). In words: Selectivity interaction (KinomeScan (DiscoverX)) EUB0001079a RPS6KA6. The note with it: at 1 µM.
Sequence of Ribosomal protein S6 kinase alpha-6 (Q9UK32 whole entry): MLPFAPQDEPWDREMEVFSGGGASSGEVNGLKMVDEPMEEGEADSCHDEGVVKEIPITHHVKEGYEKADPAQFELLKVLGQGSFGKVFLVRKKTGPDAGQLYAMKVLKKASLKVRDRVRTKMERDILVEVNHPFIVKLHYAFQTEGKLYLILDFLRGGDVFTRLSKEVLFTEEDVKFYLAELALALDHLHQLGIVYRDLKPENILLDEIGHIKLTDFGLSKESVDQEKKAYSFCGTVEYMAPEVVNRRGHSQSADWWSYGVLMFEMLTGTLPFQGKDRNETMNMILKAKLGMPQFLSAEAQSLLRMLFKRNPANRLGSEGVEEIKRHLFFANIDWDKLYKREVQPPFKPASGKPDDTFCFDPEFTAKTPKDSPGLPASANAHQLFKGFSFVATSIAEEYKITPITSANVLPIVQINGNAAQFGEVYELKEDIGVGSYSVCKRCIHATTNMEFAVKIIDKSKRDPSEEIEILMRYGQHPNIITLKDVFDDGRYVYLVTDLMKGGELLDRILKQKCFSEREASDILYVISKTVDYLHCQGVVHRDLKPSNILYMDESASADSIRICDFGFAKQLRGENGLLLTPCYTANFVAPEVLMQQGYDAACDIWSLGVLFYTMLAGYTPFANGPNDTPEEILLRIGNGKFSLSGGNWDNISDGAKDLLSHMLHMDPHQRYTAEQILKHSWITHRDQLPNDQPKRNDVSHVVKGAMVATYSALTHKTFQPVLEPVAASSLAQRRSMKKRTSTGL

Sequence of Calcium/calmodulin-dependent protein kinase kinase 2 (Homo sapiens) (Q96RR4 2-588 limits assumed): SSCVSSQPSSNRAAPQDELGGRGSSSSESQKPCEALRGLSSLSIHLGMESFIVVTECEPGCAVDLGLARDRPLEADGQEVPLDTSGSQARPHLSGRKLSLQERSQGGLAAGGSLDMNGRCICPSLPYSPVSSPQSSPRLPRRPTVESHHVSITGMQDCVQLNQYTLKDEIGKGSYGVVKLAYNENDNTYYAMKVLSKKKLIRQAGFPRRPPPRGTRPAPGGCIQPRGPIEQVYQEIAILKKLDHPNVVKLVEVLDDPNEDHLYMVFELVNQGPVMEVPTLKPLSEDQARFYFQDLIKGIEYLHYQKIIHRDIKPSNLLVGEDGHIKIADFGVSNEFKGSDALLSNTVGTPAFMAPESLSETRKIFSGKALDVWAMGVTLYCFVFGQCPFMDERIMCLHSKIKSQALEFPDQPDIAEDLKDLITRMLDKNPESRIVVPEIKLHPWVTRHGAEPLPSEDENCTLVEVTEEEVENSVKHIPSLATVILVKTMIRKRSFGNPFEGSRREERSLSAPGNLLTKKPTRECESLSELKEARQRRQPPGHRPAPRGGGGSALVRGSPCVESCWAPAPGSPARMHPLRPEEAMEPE
Sequence of Vascular endothelial growth factor receptor 2 (P35968 whole entry): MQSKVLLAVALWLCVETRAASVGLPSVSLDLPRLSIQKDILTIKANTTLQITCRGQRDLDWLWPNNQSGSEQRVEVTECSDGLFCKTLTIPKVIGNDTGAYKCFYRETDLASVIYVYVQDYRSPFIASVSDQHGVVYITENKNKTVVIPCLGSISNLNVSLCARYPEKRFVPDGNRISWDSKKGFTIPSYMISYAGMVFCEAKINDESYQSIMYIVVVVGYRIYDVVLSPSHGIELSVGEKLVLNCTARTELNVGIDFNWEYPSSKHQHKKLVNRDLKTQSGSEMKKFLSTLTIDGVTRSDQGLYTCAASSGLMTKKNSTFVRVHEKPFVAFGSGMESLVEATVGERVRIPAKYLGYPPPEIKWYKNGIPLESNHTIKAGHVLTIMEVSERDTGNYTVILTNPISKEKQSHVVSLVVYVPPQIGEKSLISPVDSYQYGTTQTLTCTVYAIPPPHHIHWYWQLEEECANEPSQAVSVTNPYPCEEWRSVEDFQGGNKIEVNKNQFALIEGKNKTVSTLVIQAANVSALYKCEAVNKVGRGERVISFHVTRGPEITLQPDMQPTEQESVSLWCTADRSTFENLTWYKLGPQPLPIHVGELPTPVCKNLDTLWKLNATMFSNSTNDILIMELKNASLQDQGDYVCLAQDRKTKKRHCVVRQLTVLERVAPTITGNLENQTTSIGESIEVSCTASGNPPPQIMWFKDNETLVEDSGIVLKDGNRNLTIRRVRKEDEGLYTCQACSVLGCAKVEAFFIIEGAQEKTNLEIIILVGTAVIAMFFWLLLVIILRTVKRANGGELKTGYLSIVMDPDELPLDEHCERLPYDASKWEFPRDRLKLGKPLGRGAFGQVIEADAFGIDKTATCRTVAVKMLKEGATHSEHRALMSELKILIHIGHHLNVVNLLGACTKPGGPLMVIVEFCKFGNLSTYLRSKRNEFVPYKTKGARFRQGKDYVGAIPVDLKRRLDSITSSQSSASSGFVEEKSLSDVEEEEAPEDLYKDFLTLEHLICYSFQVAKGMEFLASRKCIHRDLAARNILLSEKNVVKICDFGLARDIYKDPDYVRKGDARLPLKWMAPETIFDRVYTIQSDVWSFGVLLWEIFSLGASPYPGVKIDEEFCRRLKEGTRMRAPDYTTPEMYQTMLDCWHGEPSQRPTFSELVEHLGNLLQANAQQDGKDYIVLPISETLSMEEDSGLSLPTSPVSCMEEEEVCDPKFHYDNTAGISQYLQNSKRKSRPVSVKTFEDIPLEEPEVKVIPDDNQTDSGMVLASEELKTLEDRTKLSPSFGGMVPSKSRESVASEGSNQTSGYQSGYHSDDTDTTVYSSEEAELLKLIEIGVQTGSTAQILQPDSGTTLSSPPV
Sequence of Serine/threonine-protein kinase Nek6 (Homo sapiens) (Q9HC98 whole entry): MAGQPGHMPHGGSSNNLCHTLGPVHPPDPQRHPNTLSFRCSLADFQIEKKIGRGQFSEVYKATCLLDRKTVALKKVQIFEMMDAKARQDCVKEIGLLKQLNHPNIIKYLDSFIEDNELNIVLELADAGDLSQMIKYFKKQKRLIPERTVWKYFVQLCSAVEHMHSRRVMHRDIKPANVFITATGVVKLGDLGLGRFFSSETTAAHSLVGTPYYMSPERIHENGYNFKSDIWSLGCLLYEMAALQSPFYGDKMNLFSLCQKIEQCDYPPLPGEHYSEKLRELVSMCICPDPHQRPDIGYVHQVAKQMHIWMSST

In turn, `N#Cc1cccc(-c2c[nH]c3ncnc(N4CCOCC4)c23)c1` registered a % of control in assay [1] of 100%.

In the case of `Cc1cc([C@@H](C)Nc2ccccc2C(=O)O)c2nc(N3CCOCC3)cc(=O)n2c1` [AZD-6482], the % of control in assay [2] worked out at 100%.

Turning to `CC[C@@H]1[C@H](F)C(=O)N[C@@H]1COc1nccc2cc(C(N)=O)c(OC)cc12` [ZIMLOVISERTIB], the % of inhibition in assay [3] came to 56.9%.

`CNCCN1CCC(c2cc(CN(C)C(=O)c3cccc(Oc4ccccc4)c3)ccn2)CC1` registered a % activity in assay [4] of 1%.

Regarding `C=CC(=O)Nc1cc(-n2c(=O)ccc3cnc4ccc(-c5ccc(NS(C)(=O)=O)cc5)cc4c32)ccc1C`, the % of control in assay [5] (at 1 µM) and in assay [5] (at 10 µM) was 100% each time.

The compound `O[C@H]1CC[C@H](Nc2ncc3nc(Nc4c(F)cc(F)cc4F)n([C@H]4CCOC4)c3n2)CC1` gave a % of control in assay [6] of 100%.

On to `CCC(=O)N1CCN(c2ccc(-n3c(=O)ccc4cnc5ccc(-c6cnc7ccccc7c6)cc5c43)cc2C(F)(F)F)CC1`, for which, in assay [7], the % of control stood at 100%.

Compound `Nc1cnc(N2CCc3cc(S(=O)(=O)Nc4c(F)cc(Cl)cc4F)cc(N4CCCC4=O)c32)nc1` [TP-020n] registered a % of control in assay [8] of 100%.
